Measured values taken from patent US20180008573A1, “METHODS AND COMPOSITIONS FOR REDUCING DAMAGE ASSOCIATED WITH OXIDATIVE PHOSPHORYLATION” (USANA Health Sciences, Inc., priority 2016, published 2018).

How the values were obtained:
[1] = molecular target: T1, human PPARδ (Homo sapiens, UniProt Q03181); test: PPARδ agonist reporter assay (Gal4 hybrid receptor, luciferase, CHO cells); assay type: cell-based
T1 construct: expressed in transfected cells; host or cells: CHO
T1 sequence (Q03181 211-439 limits assumed): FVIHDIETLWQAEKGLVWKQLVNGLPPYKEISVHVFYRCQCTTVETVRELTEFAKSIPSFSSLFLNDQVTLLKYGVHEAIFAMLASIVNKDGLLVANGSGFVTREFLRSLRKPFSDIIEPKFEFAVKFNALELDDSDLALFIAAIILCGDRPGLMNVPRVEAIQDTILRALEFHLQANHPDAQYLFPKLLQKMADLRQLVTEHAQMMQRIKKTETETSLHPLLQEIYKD

[2] = test system: C. elegans strain CB5586; test: C. elegans phenotypic lifespan screening (Kaplan-Meier, Log-Rank, Fisher's Exact Test); assay type: in vivo; conditions: for restricted mean lifespan, # of Days: DMSO control 13.23
Method in brief: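 Synchronized adult CB5586 worms (pharyngeal GFP; bus-5 mutant, permeable cuticle) dosed with 0.1, 1 or 10 mg/ml dilutions in DMSO versus DMSO control, on NGM agar with E. coli OP-50 at 20° C. Live and dead worms counted over time by fluorescence imaging. Kaplan-Meier curves with Log-Rank and Fisher's Exact tests.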

[3] = molecular target: T2, Nrf2 (Homo sapiens, UniProt Q16236); test: Nrf2 signaling fluorescent reporter assay in human retinal epithelial cell line; assay type: cell-based; parameters: host or cells: human retinal epithelial cell line
T2 sequence (Q16236 1-605): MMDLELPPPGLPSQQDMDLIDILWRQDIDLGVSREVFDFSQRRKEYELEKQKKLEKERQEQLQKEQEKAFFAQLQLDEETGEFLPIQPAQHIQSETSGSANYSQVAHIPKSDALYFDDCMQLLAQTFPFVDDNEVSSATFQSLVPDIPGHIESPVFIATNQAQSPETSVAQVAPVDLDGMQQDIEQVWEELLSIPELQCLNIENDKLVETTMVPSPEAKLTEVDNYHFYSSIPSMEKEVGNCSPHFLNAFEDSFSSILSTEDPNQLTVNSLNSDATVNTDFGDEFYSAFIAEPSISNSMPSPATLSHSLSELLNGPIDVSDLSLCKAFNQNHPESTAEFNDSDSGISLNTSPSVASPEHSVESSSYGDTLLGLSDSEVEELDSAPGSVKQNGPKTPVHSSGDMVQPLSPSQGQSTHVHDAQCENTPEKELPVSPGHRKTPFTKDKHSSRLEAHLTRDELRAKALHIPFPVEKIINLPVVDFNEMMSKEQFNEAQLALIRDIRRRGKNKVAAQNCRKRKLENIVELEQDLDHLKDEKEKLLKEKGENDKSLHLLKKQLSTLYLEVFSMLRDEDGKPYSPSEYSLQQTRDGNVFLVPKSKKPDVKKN

O=C(O)CCCCC1CCSS1 (racemic) [Alpha lipoic acid, alpha lipoic acid]
PPARδ Fold-Activation ([1]; 1.42 μg/ml active ingredient): 1.5 fold | PPARδ Fold-Activation ([1]; 4.25 μg/ml active ingredient): 1.1 fold | PPARδ Fold-Activation ([1]; 12.7 μg/ml active ingredient): 0.80 fold | PPARδ Fold-Activation ([1]; 38.23 μg/ml active ingredient): 0.52 fold | PPARδ Fold-Activation ([1]; 114.70 μg/ml active ingredient): 0.29 fold | Statistically Significant Result (lifespan vs. DMSO control) ([2]; 0.1 mg/ml): Statistically significant increase | extension of lifespan ([2]; 0.1 mg/ml): about 12.5% | population age in days at 25% mortality ([2]; 0.1 mg/ml): 14 days | population age in days at 50% mortality ([2]; 0.1 mg/ml): 16 days | population age in days at 75% mortality ([2]; 0.1 mg/ml): 18 days | effect on chronological lifespan ([2]; 0.1 mg/ml and 10 mg/ml tested): significant positive and dose dependent increase of chronological lifespan | % Change in Mean Lifespan ([2]; 0.1 mg/ml vs. DMSO control): +12.5% | restricted mean lifespan, # of Days ([2]; 0.1 mg/ml): 14.89 days | Statistically Significant Result (lifespan vs. DMSO control) ([2]; 10 mg/ml): Statistically significant increase | extension of lifespan ([2]; 10 mg/ml): about 12.5% | population age in days at 25% mortality ([2]; 10 mg/ml): 14 days | population age in days at 50% mortality ([2]; 10 mg/ml): 16 days | population age in days at 75% mortality ([2]; 10 mg/ml): 18 days | % Change in Mean Lifespan ([2]; 10 mg/ml vs. DMSO control): +12.5% | restricted mean lifespan, # of Days ([2]; 10 mg/ml): 14.85 days | activation of Nrf2 ([3]; 100 μM and 30 μM against a control): demonstrated activation of Nrf2 at both 100 μM and 30 μM | minimum inducing concentration (Nrf2) ([3]; human retinal epithelial cell line): 1.75 µM
